Reference: article PMC5218480 (PLoS ONE, 2017)

Tested on: MV-4-11 cells
Assay: Gene expression microarray analysis (Affymetrix PrimeView) and GSEA
Type: cell-based, human
Design: RFU PODN (11730768_x_at) / Fold change /veh PODN (11730768_x_at) / RFU LINC00158 (11744669_a_at) / Fold change /veh LINC00158 (11744669_a_at) / RFU DUSP10 (11751237_a_at) / Fold change /veh DUSP10 (11751237_a_at) / RFU ID3 (11757404_x_at) / Fold change /veh ID3 (11757404_x_at) / RFU PLEKHG5 (11737974_s_at) / Fold change /veh PLEKHG5 (11737974_s_at) / RFU LRRC4B (11730491_at) / Fold change /veh LRRC4B (11730491_at) / RFU GIMAP4 (11747438_a_at) / Fold change /veh GIMAP4 (11747438_a_at) / RFU KRT8 (11758183_x_at) / Fold change /veh KRT8 (11758183_x_at) / RFU CNN1 (11734310_a_at) / Fold change /veh CNN1 (11734310_a_at) / RFU VPS37D (11726825_at) / Fold change /veh VPS37D (11726825_at) / RFU C10orf10 (11716522_x_at) / Fold change /veh C10orf10 (11716522_x_at) / RFU KIR2DL2 /// KIR2DL4 /// KIR2DL5A /// KIR2DL5B /// KIR2DS1 /// KIR2DS2 /// KIR2DS3 /// KIR2DS4 /// KIR3DL3 /// KIR3DL3 /// KIR3DS1 (11738374_at) / Fold change /veh KIR2DL2 /// KIR2DL4 /// KIR2DL5A /// KIR2DL5B /// KIR2DS1 /// KIR2DS2 /// KIR2DS3 /// KIR2DS4 /// KIR3DL3 /// KIR3DL3 /// KIR3DS1 (11738374_at) / RFU C1QL1 (11718748_at) / Fold change /veh C1QL1 (11718748_at) / RFU TMPRSS4 (11747572_a_at) / Fold change /veh TMPRSS4 (11747572_a_at) / RFU HAMP (11756126_x_at) / Fold change /veh HAMP (11756126_x_at) / RFU RNFT2 (11725882_a_at) / Fold change /veh RNFT2 (11725882_a_at) / RFU NR4A2 (11747474_a_at) / Fold change /veh NR4A2 (11747474_a_at) / RFU ABCC12 (11746883_a_at) / Fold change /veh ABCC12 (11746883_a_at) / RFU TMEM136 (11760407_x_at) / Fold change /veh TMEM136 (11760407_x_at) / RFU CLDN22 /// WWC2 (11732394_at) / Fold change /veh CLDN22 /// WWC2 (11732394_at) / RFU HLA-DPB1 (11760878_x_at) / Fold change /veh HLA-DPB1 (11760878_x_at) / RFU SPINT1 (11716480_a_at) / Fold change /veh SPINT1 (11716480_a_at) / RFU GAP43 (11754022_s_at) / Fold change /veh GAP43 (11754022_s_at) / RFU A4GNT (11735810_at) / Fold change /veh A4GNT (11735810_at) / RFU PRB3 (11715151_x_at) / Fold change /veh PRB3 (11715151_x_at) / RFU TUBB4B (11761932_at) / Fold change /veh TUBB4B (11761932_at) / RFU CAPN14 (11732068_a_at) / Fold change /veh CAPN14 (11732068_a_at) / RFU TMCC2 (11721928_a_at) / Fold change /veh TMCC2 (11721928_a_at) / RFU IRGQ (11745062_a_at) / Fold change /veh IRGQ (11745062_a_at) / RFU FAM174B (11720279_a_at) / Fold change /veh FAM174B (11720279_a_at) / RFU TMPRSS4 (11748680_a_at) / Fold change /veh TMPRSS4 (11748680_a_at) / RFU FAM212B (11763350_a_at) / Fold change /veh FAM212B (11763350_a_at) / RFU PLEKHG5 (11743358_a_at) / Fold change /veh PLEKHG5 (11743358_a_at) / RFU ZSCAN30 (11745921_a_at) / Fold change /veh ZSCAN30 (11745921_a_at) / RFU CMKLR1 (11741424_a_at) / Fold change /veh CMKLR1 (11741424_a_at) / RFU LOC101060620 /// MAPK8IP1 (11723275_at) / Fold change /veh LOC101060620 /// MAPK8IP1 (11723275_at) / RFU SPTSSB (11747773_x_at) / Fold change /veh SPTSSB (11747773_x_at) / RFU PRSS12 (11739890_at) / Fold change /veh PRSS12 (11739890_at) / RFU BIN1 (11741810_x_at) / Fold change /veh BIN1 (11741810_x_at) / RFU WNT11 (11732464_a_at) / Fold change /veh WNT11 (11732464_a_at) / RFU C10orf10 (11716521_a_at) / Fold change /veh C10orf10 (11716521_a_at) / RFU C5orf56 (11738089_at) / Fold change /veh C5orf56 (11738089_at) / RFU CYB561 (11721691_x_at) / Fold change /veh CYB561 (11721691_x_at) / RFU ANKRD19P (11752326_a_at) / Fold change /veh ANKRD19P (11752326_a_at) / RFU OR2T12 /// OR2T33 /// OR2T8 (11738714_s_at) / Fold change /veh OR2T12 /// OR2T33 /// OR2T8 (11738714_s_at) / RFU VCAN (11748164_a_at) / Fold change /veh VCAN (11748164_a_at) / RFU JSRP1 (11732532_at) / Fold change /veh JSRP1 (11732532_at) / RFU KRTAP10-11 (11738290_x_at) / Fold change /veh KRTAP10-11 (11738290_x_at) / RFU MYO3A (11730013_a_at) / Fold change /veh MYO3A (11730013_a_at) / RFU EBF3 (11725865_a_at) / Fold change /veh EBF3 (11725865_a_at) / RFU CAMK2N1 (11719241_x_at) / Fold change /veh CAMK2N1 (11719241_x_at) / RFU C5orf56 (11738088_a_at) / Fold change /veh C5orf56 (11738088_a_at) / RFU OLFML3 (11715873_a_at) / Fold change /veh OLFML3 (11715873_a_at) / RFU LOC100653217 /// NTM (11731650_a_at) / Fold change /veh LOC100653217 /// NTM (11731650_a_at) / RFU MAPK11 (11762145_a_at) / Fold change /veh MAPK11 (11762145_a_at) / RFU FIZ1 (11724087_x_at) / Fold change /veh FIZ1 (11724087_x_at) / RFU OASL (11726364_x_at) / Fold change /veh OASL (11726364_x_at) / RFU SOX15 (11748057_x_at) / Fold change /veh SOX15 (11748057_x_at) / RFU CD79A (11719716_a_at) / Fold change /veh CD79A (11719716_a_at) / RFU HIST1H1D (11736915_at) / Fold change /veh HIST1H1D (11736915_at) / RFU CASKIN2 (11723855_a_at) / Fold change /veh CASKIN2 (11723855_a_at) / RFU LOC730098 (11760151_x_at) / Fold change /veh LOC730098 (11760151_x_at) / RFU OR4N2 (11742367_at) / Fold change /veh OR4N2 (11742367_at) / RFU PRRT2 (11749266_a_at) / Fold change /veh PRRT2 (11749266_a_at) / RFU SNX32 (11753110_a_at) / Fold change /veh SNX32 (11753110_a_at) / RFU CDHR5 (11726645_a_at) / Fold change /veh CDHR5 (11726645_a_at) / RFU RCAN1 (11760418_a_at) / Fold change /veh RCAN1 (11760418_a_at) / RFU FAM167A (11723789_a_at) / Fold change /veh FAM167A (11723789_a_at) / RFU FAM26E (11764081_at) / Fold change /veh FAM26E (11764081_at) / RFU ISYNA1 (11749810_s_at) / Fold change /veh ISYNA1 (11749810_s_at) / RFU ACY1 (11761880_at) / Fold change /veh ACY1 (11761880_at) / RFU 11764098_at / Fold change /veh 11764098_at / RFU SAMD14 (11745864_x_at) / Fold change /veh SAMD14 (11745864_x_at) / RFU NPB (11741838_a_at) / Fold change /veh NPB (11741838_a_at) / RFU TMPRSS6 (11731388_a_at) / Fold change /veh TMPRSS6 (11731388_a_at) / RFU KRTAP10-2 (11738614_at) / Fold change /veh KRTAP10-2 (11738614_at) / RFU ARHGAP8 /// PRR5-ARHGAP8 (11727945_x_at) / Fold change /veh ARHGAP8 /// PRR5-ARHGAP8 (11727945_x_at) / RFU KRTAP5-7 /// NADSYN1 (11734609_at) / Fold change /veh KRTAP5-7 /// NADSYN1 (11734609_at) / RFU RASL12 (11751679_a_at) / Fold change /veh RASL12 (11751679_a_at) / RFU CDKN2B (11736163_a_at) / Fold change /veh CDKN2B (11736163_a_at) / RFU PRF1 (11729649_at) / Fold change /veh PRF1 (11729649_at) / RFU, ZNF638 /// ZNF638-IT1 / Fold change vs veh, ZNF638 /// ZNF638-IT1 / RFU, PANK3 / Fold change vs veh, PANK3 / RFU, SH3YL1 / Fold change vs veh, SH3YL1 / RFU, ZEB2 / Fold change vs veh, ZEB2 / RFU, NRIP1 / Fold change vs veh, NRIP1 / RFU, PTTG1IP / Fold change vs veh, PTTG1IP / RFU, CAPN2 / Fold change vs veh, CAPN2 / RFU, MED14 / Fold change vs veh, MED14 / RFU, SNORA58 / Fold change vs veh, SNORA58 / RFU, C1orf63 / Fold change vs veh, C1orf63 / RFU, LRRFIP1 / Fold change vs veh, LRRFIP1 / RFU, NDUFAF7 / Fold change vs veh, NDUFAF7 / RFU, SLC12A2 / Fold change vs veh, SLC12A2 / RFU, IBTK / Fold change vs veh, IBTK / RFU, ESF1 / Fold change vs veh, ESF1 / Fold change vs veh, TMEM50B / RFU, TAOK1 / Fold change vs veh, TAOK1 / RFU, ACBD3 / Fold change vs veh, ACBD3 / RFU, TMA16 / Fold change vs veh, TMA16 / RFU, RWDD3 / Fold change vs veh, RWDD3 / RFU, BCAT1 / Fold change vs veh, BCAT1 / RFU, EDEM3 / Fold change vs veh, EDEM3 / RFU, TMEM33 / Fold change vs veh, TMEM33 / RFU, WDR75 / Fold change vs veh, WDR75 / RFU, AHCTF1 / Fold change vs veh, AHCTF1 / RFU, TFRC / Fold change vs veh, TFRC / RFU, ZDHHC17 / Fold change vs veh, ZDHHC17 / RFU, NOM1 / Fold change vs veh, NOM1 / RFU, ARL8B / Fold change vs veh, ARL8B / RFU, ZBTB11 / Fold change vs veh, ZBTB11 / RFU, TAMM41 / Fold change vs veh, TAMM41 / RFU, KIAA1704 /// LOC100996395 / Fold change vs veh, KIAA1704 /// LOC100996395 / RFU, ING1 / Fold change vs veh, ING1 / RFU, TRMT61B / Fold change vs veh, TRMT61B / RFU, FUBP3 / Fold change vs veh, FUBP3 / RFU, TP53 / Fold change vs veh, TP53 / RFU, TNKS2 / Fold change vs veh, TNKS2 / RFU, ZFP14 / Fold change vs veh, ZFP14 / RFU, ACTR2 / Fold change vs veh, ACTR2 / RFU, PPP3R1 / Fold change vs veh, PPP3R1 / RFU, PIK3R1 / Fold change vs veh, PIK3R1 / RFU, HNRNPA1 / Fold change vs veh, HNRNPA1 / RFU, RNF170 / Fold change vs veh, RNF170 / RFU, ZNF28 / Fold change vs veh, ZNF28 / RFU, RNGTT / Fold change vs veh, RNGTT / RFU, OGT / Fold change vs veh, OGT / RFU, BRD1 / Fold change vs veh, BRD1 / RFU, MARS / Fold change vs veh, MARS / RFU, ZNF655 / Fold change vs veh, ZNF655 / RFU, FAHD1 / Fold change vs veh, FAHD1 / RFU, BDP1 / Fold change vs veh, BDP1 / RFU, LRRCC1 / Fold change vs veh, LRRCC1 / RFU, ARID1A / Fold change vs veh, ARID1A / RFU, ZNF146 / Fold change vs veh, ZNF146 / RFU, ZNF330 / Fold change vs veh, ZNF330 / RFU, GPN3 / Fold change vs veh, GPN3 / RFU, C9orf123 / Fold change vs veh, C9orf123 / RFU, N4BP2L2 / Fold change vs veh, N4BP2L2 / RFU, ARFIP1 / Fold change vs veh, ARFIP1 / RFU, FAM179B / Fold change vs veh, FAM179B / RFU, BCL10 / Fold change vs veh, BCL10 / RFU, UHRF1BP1L / Fold change vs veh, UHRF1BP1L / RFU, BET1 / Fold change vs veh, BET1 / RFU, CNOT2 / Fold change vs veh, CNOT2 / RFU, ZNF268 / Fold change vs veh, ZNF268 / Fold change vs veh, ZNF507 / RFU, DGCR2 / Fold change vs veh, DGCR2 / RFU, WDSUB1 / Fold change vs veh, WDSUB1 / Fold change vs veh, HSP90B1 /// MIR3652 / RFU, ADSS / Fold change vs veh, ADSS / RFU, GK / Fold change vs veh, GK / RFU, ZNF148 / Fold change vs veh, ZNF148 / RFU, TAF9 / Fold change vs veh, TAF9 / RFU, SLC1A5 / Fold change vs veh, SLC1A5 / RFU, SLMO2 / Fold change vs veh, SLMO2 / RFU, ABCC4 / Fold change vs veh, ABCC4 / RFU, LOC101060439 /// RAP1B / Fold change vs veh, LOC101060439 /// RAP1B / RFU, RFX7 / Fold change vs veh, RFX7 / RFU, GTPBP10 / Fold change vs veh, GTPBP10 / RFU, CNEP1R1 / Fold change vs veh, CNEP1R1 / RFU, BIVM-ERCC5 /// ERCC5 / Fold change vs veh, BIVM-ERCC5 /// ERCC5 / RFU, ILF3 / Fold change vs veh, ILF3 / RFU 11762660_at / Fold change /veh 11762660_at / RFU VCAN (11757783_s_at) / Fold change /veh VCAN (11757783_s_at) / RFU DDX43 (11728927_at) / Fold change /veh DDX43 (11728927_at) / RFU KRT8 (11758188_x_at) / Fold change /veh KRT8 (11758188_x_at) / RFU NKD1 (11759106_at) / Fold change /veh NKD1 (11759106_at) / RFU SRD5A1 (11742802_a_at) / Fold change /veh SRD5A1 (11742802_a_at) / RFU TPSAB1 /// TPSB2 (11721975_s_at) / Fold change /veh TPSAB1 /// TPSB2 (11721975_s_at) / RFU GSTM3 (11746129_a_at) / Fold change /veh GSTM3 (11746129_a_at) / RFU IL23R (11737362_x_at) / Fold change /veh IL23R (11737362_x_at) / RFU TMEM51 (11727254_a_at) / Fold change /veh TMEM51 (11727254_a_at) / RFU PIWIL2 (11732686_x_at) / Fold change /veh PIWIL2 (11732686_x_at) / RFU ORM1 (11744905_x_at) / Fold change /veh ORM1 (11744905_x_at) / RFU CCDC152 (11743942_at) / Fold change /veh CCDC152 (11743942_at) / RFU ECM1 (11717891_a_at) / Fold change /veh ECM1 (11717891_a_at) / RFU IL23R (11748794_a_at) / Fold change /veh IL23R (11748794_a_at) / RFU TNFAIP8L3 (11732012_x_at) / Fold change /veh TNFAIP8L3 (11732012_x_at) / RFU MBOAT4 (11741988_at) / Fold change /veh MBOAT4 (11741988_at) / RFU 11764193_at / Fold change /veh 11764193_at / RFU TMEM53 (11763286_at) / Fold change /veh TMEM53 (11763286_at) / RFU MAGEB2 (11727129_at) / Fold change /veh MAGEB2 (11727129_at) / RFU TMEM200A (11744735_a_at) / Fold change /veh TMEM200A (11744735_a_at) / RFU CCDC152 (11751479_a_at) / Fold change /veh CCDC152 (11751479_a_at) / RFU FAM211A (11726209_a_at) / Fold change /veh FAM211A (11726209_a_at) / RFU RGS16 (11746705_a_at) / Fold change /veh RGS16 (11746705_a_at) / RFU VCAN (11755009_s_at) / Fold change /veh VCAN (11755009_s_at) / RFU RHOB (11743442_s_at) / Fold change /veh RHOB (11743442_s_at) / RFU RGS16 (11720943_a_at) / Fold change /veh RGS16 (11720943_a_at) / RFU RGS16 (11720944_at) / Fold change /veh RGS16 (11720944_at) / RFU, VPS4B / Fold change vs veh, VPS4B / RFU, CREB1 / Fold change vs veh, CREB1 / RFU, DNAJC13 / Fold change vs veh, DNAJC13 / RFU, GNAQ / Fold change vs veh, GNAQ / RFU, CDK5R1 / Fold change vs veh, CDK5R1 / RFU, ZRANB3 / Fold change vs veh, ZRANB3 / RFU, CUL4A / Fold change vs veh, CUL4A / RFU, CCNY / Fold change vs veh, CCNY / RFU, UFL1 / Fold change vs veh, UFL1 / RFU, COG3 / Fold change vs veh, COG3 / RFU, DIAPH2 / Fold change vs veh, DIAPH2 / RFU, SKA2 / Fold change vs veh, SKA2 / RFU, AFF3 / Fold change vs veh, AFF3 / RFU, LMF1 / Fold change vs veh, LMF1 / RFU, IPO11 / Fold change vs veh, IPO11 / RFU, DFFB / Fold change vs veh, DFFB / RFU, FOXP1 / Fold change vs veh, FOXP1 / RFU, CARD8 / Fold change vs veh, CARD8 / RFU, STRN3 / Fold change vs veh, STRN3 / RFU, ADK / Fold change vs veh, ADK / RFU, RASSF2 / Fold change vs veh, RASSF2 / RFU, WIPF1 / Fold change vs veh, WIPF1 / RFU, LARP1B / Fold change vs veh, LARP1B / RFU, RASA1 / Fold change vs veh, RASA1 / RFU, RB1 / Fold change vs veh, RB1 / RFU, PPFIA1 / Fold change vs veh, PPFIA1 / RFU, MAT2A / Fold change vs veh, MAT2A / RFU, CCT5 / Fold change vs veh, CCT5 / RFU, WDR92 / Fold change vs veh, WDR92 / RFU, CUX1 / Fold change vs veh, CUX1 / RFU, TTC7A / Fold change vs veh, TTC7A / RFU, TMEM135 / Fold change vs veh, TMEM135 / RFU, DEPTOR / Fold change vs veh, DEPTOR / RFU, CPM / Fold change vs veh, CPM / RFU, DNAJB6 / Fold change vs veh, DNAJB6 / RFU, CACNA2D3 / Fold change vs veh, CACNA2D3 / RFU, DTX4 / Fold change vs veh, DTX4 / RFU, TFCP2 / Fold change vs veh, TFCP2 / RFU, GMCL1 /// GMCL1P1 / Fold change vs veh, GMCL1 /// GMCL1P1 / RFU, AEBP2 / Fold change vs veh, AEBP2 / RFU, SNHG1 /// SNORD22 /// SNORD25 /// SNORD26 /// SNORD27 /// SNORD28 /// SNORD29 /// SNORD31 / Fold change vs veh, SNHG1 /// SNORD22 /// SNORD25 /// SNORD26 /// SNORD27 /// SNORD28 /// SNORD29 /// SNORD31 / Fold change (Aza/veh), C12orf56 (ProbeSet 11735607_a_at) / Fold change (ACY-1035/veh), C12orf56 (ProbeSet 11735607_a_at) / Fold change (Aza/veh), FGFR1OP (ProbeSet 11751329_s_at) / Fold change (ACY-1035/veh), FGFR1OP (ProbeSet 11751329_s_at) / Fold change (Aza/veh), VPS36 (ProbeSet 11739960_a_at) / Fold change (ACY-1035/veh), VPS36 (ProbeSet 11739960_a_at) / RFU SYPL1 (11715823_x_at) / Fold change /veh SYPL1 (11715823_x_at) / RFU IGFBP7 (11715501_s_at) / Fold change /veh IGFBP7 (11715501_s_at) / RFU REEP3 (11722064_at) / Fold change /veh REEP3 (11722064_at) / RFU IGLL1 (11728026_x_at) / Fold change /veh IGLL1 (11728026_x_at): dose or concentration left out as unconfirmed
Conditions: MV-4-11 cells, 48 hours

## Nc1ccc(-c2cccs2)cc1NC(=O)c1ccc2c(c1)cc(C1CC1)n2CCN1CCOCC1 [ACY-1035]
  Fold change /veh TMEM200A (11744735_a_at): 1.19
